From patent US20150051246A1 (priority 2013, published 2015)

Key:
[1] = system: male Wistar rats; experiment: Object recognition task (ORT), scopolamine induced memory deficit; type: in vivo
Protocol: Memory acquisition processes are investigated using the object recognition test (ORT).
Twenty four 3-4 month old male Wistar rats (Charles River, Sulzfeld, Germany) were used for the study. All animals were housed individually in standard green line Tecniplast IVC cages on stardust bedding. The animals were housed on a reversed 12/12 h light/dark cycle (lights on from 07:00 pm to 07:00 am) and had free access to food and water. The rats were housed and tested in the same room. A radio, playing softly, provided background noise in the room. All testing was performed between 09:00 am and 06:00 pm.
Drugs were prepared daily, except as indicated otherwise. Roflumilast (Takeda, Konstanz, Germany, MW 403.21) was dissolved in 98% methylcellulose solution (0.5% methylcellulose) and 2% Tween 80. Roflumilast in doses of 0 (vehicle), 0.0001, 0.0003, 0.001, 0.003, 0.01 and 0.03 mg/kg was administered intraperitonally (ip, injection volume 1 ml/kg). […] All compounds were administered 30 min before T1.
The testing order of conditions was determined randomly. The experimenter was blind of testing protocol. A within design was used and all treatment conditions were balanced over rats. The ORT was performed as described elsewhere (Ennaceur and Delaceur, 1988, Behav Brain Res, Vol 31, pp 47-59; Akkerman et al; 2012, Behav Brain Res, Vol 232, pp 335-347). The apparatus consisted of a circular arena, 83 cm in diameter. The back half of the 40 cm high wall was made of grey PVC and the front was made of transparent PVC. Fluorescent red tubes and a light bulb provided a constant illumination of about 20 lux on the floor of the apparatus. The light intensity was equal in the different parts of the apparatus.
Two objects were placed in symmetrical positions at the mid-line between the gray and transparent halves of the arena, about ten centimeters away from wall. Four different sets of objects were available: 1) a standard 1 L brown transparent glass bottle (diameter 10 cm, height 22 cm) filled with water, 2) a metal cube (10.0×5.0×7.5 cm) with two holes (diameter 1.9 cm), 3) a cone consisting of a gray PVC base (maximal diameter 18 cm) with a collar on top made of brass (total height 16 cm), and 4) an aluminum cube with a tapering top (13.0×8.0×8.0 cm). Objects were presented to the animals in a balanced manner to avoid object or place biases. Rats were unable to displace the objects.
A test session comprised two trials, each with durations of 3 min. During the learning trial (T1) the apparatus contains two identical objects (object a1 and a2). Rats were always introduced into the apparatus with their nose towards the transparent wall segment (i.e. facing outwards to the front of the arena). Subsequently, rats were put back in its home cage for a 1 h interval. After the retention interval, rats were put back into the arena for the […] (T2). In T2, the two objects from T1 were replaced by one identical copy (a3) and a different novel object (b). The times spent in exploring each object during T1 and T2 were recorded manually on a personal computer.
Exploration was defined in the following manner: directing the nose to the object at a distance of no more than 2 cm and/or touching the object with the nose. Sitting on the object was not considered as exploratory behavior. In order to avoid the presence of olfactory cues, the objects were thoroughly cleaned with a 70% ethanol solution before each trial.
Prior to compound testing, the animals were handled for 5 min on 2 consecutive days and allowed to explore the ORT arena, also for 5 min. Subsequently, the animals were accustomed to the complete ORT testing procedure without receiving any injection.
The readout parameters of the object recognition task are the times that rats spent on exploring each object during T1 and T2. The exploration time (in seconds) of each object during T1 are presented as “a1” and “a2”.

[2] = system: rats; settings: cited from earlier work
[3] = system: rats; settings: cited from earlier work; remark: listed apart in the source
[4] = type: in vivo, human; settings: plasma, single dose
Description: An interim analysis has been performed based on the data of 9 subjects of the Impaired Elderly group and 4 subjects of the Healthy Elderly group. For this purpose, cognitive battery test scores (VLT, SMT, Stroop task and BL-VAS) and concentrations of roflumilast and roflumilast-N-oxide in plasma have been analysed and summarized by dose over each scheduled sampling time using descriptive statistics.

[5] = type: in vivo, human; settings: once a day (24 h) repeated dosing
Protocol: In the above-indicated clinical trial roflumilast was administered once in a single oral dose of 100 mcg, 300 mcg or 1000 mcg. Due to the pharmacokinetics of roflumilast and its metabolite roflumilast-N-oxide and the median plasma half-life of these compounds the steady state plasma concentration levels in a once a day (24 h) repeated dosing regimen of roflumilast/roflumilast-N-oxide is about two-fold compared to the plasma concentration levels following a once a day single dosing.

[6] = system: phosphodiesterase 4; settings: in humans after roflumilast; cited from earlier work
[7] = system: male C57BL/6NCrl mice; experiment: Object Location Task (OLT), spatial memory, 24 h retention interval; type: in vivo; settings: for d2 index, discrimination index for T2: 3 h after T1, 24 h interval
Description: The objective of this study was to evaluate the cognitive improvement effects of Roflumilast on spatial memory employing Object Location Task (OLT) in male C57BL/6NCrl mice. Roflumilast was compared with data of the already established PDE4 inhibitor Rolipram in the same model.
Twenty-four 7 month-old male C57BL/6NCrl mice (Charles River, L'Arbresle, France) were used (average body weights: 27.6 g). The animals were kept under a 12/12-hour light/dark cycle (lights on from 07.00 pm to 07.00 am) with free access to food and water. All testing was done between 09.00 am and maximally 06.00 pm.
Both rolipram (Sigma-Aldrich St. Louis, USA; MW 275.34) and roflumilast (Biocrea, Radebeul, Germany; MW 403.21) were dissolved in dimethylsulfoxide (DMSO) and kept at 4° C.; this stock solution was used for further dilutions in 0.5% methylcellulose. Each of rolipram and roflumilast is used in form of its free base. All injected solutions consisted of 0.5% methylcellulose with a fixed DMSO percentages (1.2%) (vehicle).
For the Object Location Task (OLT), doses of 0.01 mg/kg, 0.03 mg/kg and 0.1 mg/kg of Rolipram or Roflumilast or vehicle were administered subcutaneously (s.c.). Based on previous findings, PDE4 inhibitor single administration was performed 3 hours after the first trial as this has an optimum effect on object memory performance. The injection volume was 5 μl/g.
The OLT apparatus consisted of a circular arena, 40 cm in diameter. Half of the 40 cm transparent polyvinyl chloride wall was covered from the outside with white paper. Two objects were placed symmetrically about 10 cm away from the wall on the separation line, between the transparent and covered side of the arena. Four different sets of objects were available: (1) a cone made of brass (maximal diameter 6 cm and total height 3.8 cm), (2) a transparent glass bottle (diameter 2.7 cm, height 8.5 cm) filled with sand and water, (3) a massive metal cube (2.5 cm×5 cm×7.5 cm) with two holes (diameter 1.5 cm), and (4) a massive aluminum cube with a tapering top (4.5 cm×4.5 cm×8.5 cm).
A testing session comprised two trials of 4 minutes. Before each trial, mice were placed in an empty Makrolon cage (incubation cage) for the same amount of time as the trial (4 min). During the first trial (T1), two identical objects were placed symmetrically about 10 cm away from the wall on the separation line between the transparent and covered side of the arena. After the first exploration period of 4 min, the mouse was put back in its home cage. Mice then received treatment at 3 hours post T1. Subsequently, after a predetermined delay interval (24 h), the mouse was placed in the apparatus for the second trial of 4 min (T2). Two identical objects as in T1 were used; one object was placed in the previously used position, whereas the other was placed in a novel position. The novel position of the object could either be a fixed distance towards the front or a fixed distance towards the back of the arena for both objects. The times spent exploring each object during T1 and T2 were recorded manually using a personal computer. All objects and locations were used in a balanced manner to exclude possible object and/or location preferences. To avoid olfactory cues, the objects were thoroughly cleaned with 70% ethanol after each trial. The testing order of conditions was determined randomly.
The measurements reflected the time spent by the mice in exploring each object during T1 and T2. The time spent in exploring the two identical samples in T1 were represented by ‘a1’ and ‘a2’, respectively. The time spent in exploring the sample and the new object in T2 were represented by ‘a’ and ‘b’, respectively. From these exploration times the following variables were calculated: e1, e2, and d2 (Table 1). The d2 index is a relative measure of discrimination corrected for exploratory activity. […]

[8] = system: xylazine/ketamine induced α2-adrenergic receptor-mediated anesthesia; settings: in vivo, 0.3 mg/kg
Description: Since emesis is a typical side-effect of PDE4 inhibitors the emetic potential of roflumilast and rolipram was investigated in parallel using the xylazine/ketamine induced α2-adrenergic receptor-mediated anesthesia test. The results confirmed that the two phosphodiesterase 4 inhibitors have different effects on emesis.

Work on `COc1cc2c(cc1OC)C(=O)C(CC1CCN(Cc3ccccc3)CC1)C2.Cl` (racemic) [donepezil, (±)-2,3-dihydro-5,6-dimethoxy2-[[1-(phenylmethyl)-4-piperidinyl]methyl]-1H-inden-1-one] yielded a d2 ([1]; scopolamine 0.1 mg/kg + donepezil 0.1 mg/kg p.o.) of 0.04.

For `O=C(NC1CC1)c1cn(-c2cccc(-c3ccc([C@@H]4C[C@H]4C(=O)O)c(F)c3)c2)c2ncccc2c1=O` [MK-0952], the “novel object recognition (in words)” value [2] is listed as “improvement of novel object recognition” and the “Water Maze DMTP test (in words)” value [3] is listed as “improvement”.

In the case of `O=C(Nc1c(Cl)c[n+]([O-])cc1Cl)c1ccc(OC(F)F)c(OCC2CC2)c1` [roflumilast-N-oxide, 3-cyclopropylmethoxy-4-difluoromethoxy-N-(3,5-dichloro-1-oxypyrid-4-yl)benzamide], the exposure [4] is given as “consistent with those previously reported”, the “steady state plasma concentration levels compared to single dosing” value [5] is given as “about two-fold” and the “share of overall phosphodiesterase 4 inhibition” value [6] is given as “more than 90%”.

With `COc1ccc(C2CNC(=O)C2)cc1OC1CCCC1` (stereo not shown) [rolipram] the “d2 index, discrimination index for T2” value ([7]; 0.01 mg/kg s.c.) was 0.08, the “d2 index, discrimination index for T2” value ([7]; 0.03 mg/kg s.c.) was 0.13 and the “d2 index, discrimination index for T2” value ([7]; 0.1 mg/kg s.c.) was 0.07. For the same compound, the “dose effective in improving spatial memory” value ([7]; s.c.) was 0.03 mg/kg and the emetic potential [8] was “strong emetic potential”.

`CN1[C@@H]2C[C@@H](OC(=O)[C@H](CO)c3ccccc3)C[C@H]1[C@@H]1O[C@@H]12` [scopolamine] showed a d2 ([1]; scopolamine 0.1 mg/kg + veh + veh, rof + dpz study) of −0.04 and a d2 ([1]; scopolamine 0.1 mg/kg ip + vehicle, dose response study) of 0.01.
